Measured values taken from US20140296479A1, “D-APTIDE AND RETRO-INVERSO APTIDE WITH MAINTAINED TARGET AFFINITY AND IMPROVED STABILITY” (GWANGJU INSTITUTE OF SCIENCE AND TECHNOLOGY, priority 2011, published 2014).
Where a SMILES comes first, the peptide text is derived from it. [ ]: non-standard residue; d: D form.

How the values were obtained:
fibronectin EDB = biological target: T1, fibronectin EDB (Homo sapiens, UniProt P02751); assay: BIAcore X (SPR) affinity for fibronectin EDB; assay type: binding; settings: biotin-EDB on SA chip; for Kd / koff (dissociation rate constant): PBS pH 7.4; for kon: PBS pH 7.4, read-out: ka
T1 construct: Biotin-EDB of 2000 RU was immobilized on streptavidin SA chip
Protocol: To investigate whether the activity is maintained where Aptamer-Like Peptides specifically binding to fibronectin EDB, i.e., L-Aptide1EDB are converted into D- and Retro inverso (RI)-form, their affinity to a target was measured. Firstly, 3 peptides, L-Aptide1EDB ([…], all L-amino acids, SEQ ID NO:21), D-Aptide1EDB ([…], all D-amino acids, SEQ ID NO:21) and RI-Aptide1EDB ([…], all D-amino acids), were synthesized by Anigen Inc. (Korea). Their affinity for a target was determined using BIAcore X (Biacore AB, Uppsala, Sweden). Biotin-EDB of 2000 RU was immobilized on streptavidin SA chip (Biacore). A PBS (pH 7.4) was used as a running buffer, a flow rate was 30 μl/min, and the affinity was determined with BIAevaluation software (Biacore AB, Uppsala, Sweden) after measuring kinetics of various concentrations.

α-chymotrypsin = biological target: T2, α-chymotrypsin (Bos taurus, UniProt P00766); assay: Degradation of Aptides by protease, SDS-PAGE; assay type: in vitro ADME; settings: 10 unit α-chymotrypsin, 100 μg peptide, FIG. 3
T2 construct: purchased Sigma
Protocol: (§1) Degradation levels of the L-Aptide1EDB and D-Aptide1EDB were measured using proteases, α-chymotrypsin and trypsin (Sigma). The proteases of 10 unit were added to 100 μg peptides, followed by the reaction for 30, 60, 120 and 720 min, and the reaction was blocked by adding SDS sample buffer (Invitrogen). Subsequently, results for the peptide degradation were obtained from SDS-PAGE.

trypsin = assay: Degradation of Aptides by protease, SDS-PAGE; assay type: in vitro ADME; settings: 10 unit trypsin, 100 μg peptide, FIG. 3
Protocol: as §1

| Compound | Kd (fibronectin EDB) | koff (dissociation rate constant) (fibronectin EDB) | kon (fibronectin EDB) | time to degradation by protease (α-chymotrypsin) | time to degradation by protease (trypsin) |
| --- | --- | --- | --- | --- | --- |
| CC[C@@H](C)[C@@H](NC(=O)CNC(=O)[C@@H](CCCCN)NC(=O)[C@@H](Cc1c[nH]c2ccccc12)NC(=O)[C@H](NC(=O)[C@@H](Cc1c[nH]c2ccccc12)NC(=O)[C@@H](CCCCN)NC(=O)CNC(=O)[C@@H](CC(N)=O)NC(=O)[C@@H](CCC(=O)O)NC(=O)[C@@H](Cc1c[nH]c2ccccc12)NC(=O)[C@H](NC(=O)[C@@H](Cc1c[nH]c2ccccc12)NC(=O)[C@@H](CO)NC(=O)CNC(=O)[C@H](NC(=O)[C@@H](C)NC(=O)[C@@H](CO)NC(=O)[C@@H](CO)NC(=O)[C@@H](CS)NC(=O)[C@H](N)Cc1c[nH]cn1)C(C)C)[C@H](C)O)[C@H](C)O)C(=O)N[C@@H](C(=O)N[C@H](CCCNC(=N)N)C(=O)N[C@H](CC(C)C)C(=O)N[C@H](CCC(=O)O)C(=O)N[C@H](CCC(N)=O)C(=O)O)[C@H](C)CC [D-Aptide1EDB] (H-[dH][dC][dS][dS][dA][dV]G[dS][dW][dT][dW][dE][dN]G[dK][dW][dT][dW][dK]G[dI][dI][dR][dL][dE][dQ]-OH; N-terminus and C-terminus assumed) | 58 nM | 0.0009 s⁻¹ | 15000 M⁻¹ s⁻¹ | > 360 min | > 360 min |
| CC[C@H](C)[C@H](NC(=O)CNC(=O)[C@H](CCCCN)NC(=O)[C@H](Cc1c[nH]c2ccccc12)NC(=O)[C@@H](NC(=O)[C@H](Cc1c[nH]c2ccccc12)NC(=O)[C@H](CCCCN)NC(=O)CNC(=O)[C@H](CC(N)=O)NC(=O)[C@H](CCC(=O)O)NC(=O)[C@H](Cc1c[nH]c2ccccc12)NC(=O)[C@@H](NC(=O)[C@H](Cc1c[nH]c2ccccc12)NC(=O)[C@H](CO)NC(=O)CNC(=O)[C@@H](NC(=O)[C@H](C)NC(=O)[C@H](CO)NC(=O)[C@H](CO)NC(=O)[C@H](CS)NC(=O)[C@@H](N)Cc1c[nH]cn1)C(C)C)[C@@H](C)O)[C@@H](C)O)C(=O)N[C@H](C(=O)N[C@@H](CCCNC(=N)N)C(=O)N[C@@H](CC(C)C)C(=O)N[C@@H](CCC(=O)O)C(=O)N[C@@H](CCC(N)=O)C(=O)O)[C@@H](C)CC [L-Aptide1EDB] (H-HCSSAVGSWTWENGKWTWKGIIRLEQ-OH; N-terminus and C-terminus assumed) | 65 nM | 0.00095 s⁻¹ | 10000 M⁻¹ s⁻¹ | ≤ 30 min | ≤ 30 min |
